Literature values as cited in US7604185B2, “Generation of therapeutic microfoam” (BTG International Ltd., priority 2002, dated 2009).

Settings: in water at STP

| Mole Fraction Solubility 10^−3 | SMILES |
| --- | --- |
| 61.5 10^−3 | O=C=O [Carbon dioxide] |
| 2.3 10^−3 | O=O [Oxygen] |
| 43.7 10^−3 | [N-]=[N+]=O [Nitrous oxide] |

| SMILES | Mole Fraction Solubility 10^−3 |
| --- | --- |
| [He] [Helium] | 0.7 10^−3 |
